Assays:
Type in all cases: in vivo
[1] = test system: common ragweed (Ambrosia artemisiifolia L., AMBEL); assay: Post-emerge greenhouse herbicide test, phytotoxicity rating; details: 14 days after application
How it was run: (§1)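 Compounds in acetone with 0.25% v/v non-ionic surfactant were track-sprayed at 187 l/ha over plants at the 2-3 leaf stage, at 63 to 1000 g ai/ha. Pots were bottom-watered. Injury was scored visually 14 days later on a 0-100 scale, where 0 is no damage and 100 is complete plant death.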

[2] = test system: green foxtail (Setaria viridis, SETVI); assay: as above; details: 14 days after application
How it was run: as §1

[3] = test system: large crabgrass (Digitaria sanguinalis, DIGSA); assay: as above; details: 14 days after application
How it was run: as §1

[4] = test system: barnyardgrass (Echinochloa crusgalli, ECHCG); assay: as above; details: 14 days after application
How it was run: as §1

[5] = test system: redroot pigweed (Amaranthus retroflexus, AMARE); assay: as above; details: 14 days after application
How it was run: as §1

[6] = test system: ivyleaf morningglory (Ipomoea hederacea, IPOHE); assay: as above; details: 14 days after application
How it was run: as §1

[7] = test system: velvetleaf (Abutilon theophrasti, ABUTH); assay: as above; details: 14 days after application
How it was run: as §1

[8] = test system: Johnsongrass (Sorghum halepense, SORHA); assay: as above; details: 14 days after application
How it was run: as §1

[9] = test system: lambsquarters (Chenopodium album, CHEAL); assay: as above; details: 14 days after application
How it was run: as §1

[10] = test system: sicklepod (Cassia obtusifolia, CASOB); assay: as above; details: 14 days after application
How it was run: as §1

[11] = test system: field corn (Zea mays L., var. Dekalb 535, CORN); assay: Pre-emerge greenhouse test, crop damage rating; details: 14 days after application, rating scale 0-100
How it was run: (§2)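 Seeds sown in sandy loam mix one day before track-sprayer application of compounds in acetone at 125–1000 g ai/ha (187 l/ha), then surface-watered to incorporate and bottom-watered. Visual rating 14 days after application on a 0–100 scale (0 = no damage, 100 = all plants dead).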

[12] = test system: upland rice (Oryza sp., var.Tebonnet, RICE); assay: Pre-emerge greenhouse test, crop damage rating; details: 14 days after application, rating scale 0-100
How it was run: as §2

[13] = test system: field corn (Zea mays L., var. Dekalb 535, CORN); assay: Post-emerge greenhouse test, crop damage rating; details: 14 days after application
How it was run: as §1

[14] = test system: upland rice (Oryza sp., var.Tebonnet, RICE); assay: Post-emerge greenhouse test, crop damage rating; details: 14 days after application
How it was run: as §1

[15] = test system: soybean (Glycine max L., var. Pella 86, SOY); assay: Post-emerge greenhouse test, crop damage rating; details: 14 days after application
How it was run: as §1

[16] = test system: soybean (Glycine max L., var. Pella 86, SOY); assay: Pre-emerge greenhouse test, crop damage rating; details: 14 days after application, rating scale 0-100
How it was run: as §2

[17] = test system: green foxtail (Setaria viridis, SETVI); assay: Pre-emerge greenhouse herbicide test, phytotoxicity rating; details: 14 days after application, rating scale 0-100
How it was run: as §2

[18] = test system: large crabgrass (Digitaria sanguinalis, DIGSA); assay: as above; details: 14 days after application, rating scale 0-100
How it was run: as §2

[19] = test system: barnyardgrass (Echinochloa crusgalli, ECHCG); assay: as above; details: 14 days after application, rating scale 0-100
How it was run: as §2

[20] = test system: redroot pigweed (Amaranthus retroflexus, AMARE); assay: as above; details: 14 days after application, rating scale 0-100
How it was run: as §2

[21] = test system: ivyleaf morningglory (Ipomoea hederacea, IPOHE); assay: as above; details: 14 days after application, rating scale 0-100
How it was run: as §2

[22] = test system: velvetleaf (Abutilon theophrasti, ABUTH); assay: as above; details: 14 days after application, rating scale 0-100
How it was run: as §2

[23] = test system: Johnsongrass (Sorghum halepense, SORHA); assay: as above; details: 14 days after application, rating scale 0-100
How it was run: as §2

[24] = test system: lambsquarters (Chenopodium album, CHEAL); assay: as above; details: 14 days after application, rating scale 0-100
How it was run: as §2

[25] = test system: sicklepod (Cassia obtusifolia, CASOB); assay: as above; details: 14 days after application, rating scale 0-100
How it was run: as §2

[26] = test system: common ragweed (Ambrosia artemisiifolia L., AMBEL); assay: as above; details: 14 days after application, rating scale 0-100
How it was run: as §2

## O=c1n(CCCF)nnn1-c1cc(Oc2ncccc2C(F)(F)F)c(Cl)cc1F [Compound 6-6]
[1]; 63 g al/ha
  AMBEL phytotoxicity rating (0-100): 20
[1]; 500 g al/ha
  AMBEL phytotoxicity rating (0-100): 20
[2]; 63 g al/ha
  SETVI phytotoxicity rating (0-100): 10
[2]; 500 g al/ha
  SETVI phytotoxicity rating (0-100): 40
[3]; 63 g al/ha
  DIGSA phytotoxicity rating (0-100): 0
[3]; 500 g al/ha
  DIGSA phytotoxicity rating (0-100): 10
[4]; 63 g al/ha
  ECHCG phytotoxicity rating (0-100): 20
[4]; 500 g al/ha
  ECHCG phytotoxicity rating (0-100): 70
[5]; 63 g al/ha
  AMARE phytotoxicity rating (0-100): 70
[5]; 500 g al/ha
  AMARE phytotoxicity rating (0-100): 95
[6]; 63 g al/ha
  IPOHE phytotoxicity rating (0-100): 60
[6]; 500 g al/ha
  IPOHE phytotoxicity rating (0-100): 95
[7]; 63 g al/ha
  ABUTH phytotoxicity rating (0-100): 50
[7]; 500 g al/ha
  ABUTH phytotoxicity rating (0-100): 95
[8]; 63 g al/ha
  SORHA phytotoxicity rating (0-100): 0
[8]; 500 g al/ha
  SORHA phytotoxicity rating (0-100): 70
[9]; 63 g al/ha
  CHEAL phytotoxicity rating (0-100): 90
[9]; 500 g al/ha
  CHEAL phytotoxicity rating (0-100): 100
[10]; 63 g al/ha
  CASOB phytotoxicity rating (0-100): 0
[10]; 500 g al/ha
  CASOB phytotoxicity rating (0-100): 30
[11]; 125 g ai/ha
  crop damage rating CORN: 0
[11]; 500 g ai/ha
  crop damage rating CORN: 0
[12]; 125 g ai/ha
  crop damage rating RICE: 0
[12]; 500 g ai/ha
  crop damage rating RICE: 30
[13]; 63 g al/ha
  CORN crop damage rating (0-100): 5
[13]; 500 g al/ha
  CORN crop damage rating (0-100): 15
[14]; 63 g al/ha
  RICE crop damage rating (0-100): 20
[14]; 500 g al/ha
  RICE crop damage rating (0-100): 40
[15]; 63 g al/ha
  SOY crop damage rating (0-100): 10
[15]; 500 g al/ha
  SOY crop damage rating (0-100): 50
[16]; 125 g ai/ha
  crop damage rating SOY: 0
[16]; 500 g ai/ha
  crop damage rating SOY: 10
[17]; 125 g ai/ha
  phytotoxicity rating SETVI: 95
[17]; 500 g ai/ha
  phytotoxicity rating SETVI: 100
[18]; 125 g ai/ha
  phytotoxicity rating DIGSA: 20
[18]; 500 g ai/ha
  phytotoxicity rating DIGSA: 100
[19]; 125 g ai/ha
  phytotoxicity rating ECHCG: 20
[19]; 500 g ai/ha
  phytotoxicity rating ECHCG: 60
[20]; 125 g ai/ha
  phytotoxicity rating AMARE: 95
[20]; 500 g ai/ha
  phytotoxicity rating AMARE: 100
[21]; 125 g ai/ha
  phytotoxicity rating IPOHE: 30
[21]; 500 g ai/ha
  phytotoxicity rating IPOHE: 50
[22]; 125 g ai/ha
  phytotoxicity rating ABUTH: 80
[22]; 500 g ai/ha
  phytotoxicity rating ABUTH: 100
[23]; 125 g ai/ha
  phytotoxicity rating SORHA: 30
[23]; 500 g ai/ha
  phytotoxicity rating SORHA: 95
[24]; 125 g ai/ha
  phytotoxicity rating CHEAL: 100
[24]; 500 g ai/ha
  phytotoxicity rating CHEAL: 100
[25]; 125 g ai/ha
  phytotoxicity rating CASOB: 10
[25]; 500 g ai/ha
  phytotoxicity rating CASOB: 0
[26]; 125 g ai/ha
  phytotoxicity rating AMBEL: 30
[26]; 500 g ai/ha
  phytotoxicity rating AMBEL: 60

## Cn1c(C(F)(F)F)nc(-c2cc(Oc3ncccc3[N+](=O)[O-])c(Cl)cc2F)c1Cl [Compound 2-1]
[1]; 63 g al/ha
  AMBEL phytotoxicity rating (0-100): 10
[1]; 500 g al/ha
  AMBEL phytotoxicity rating (0-100): 40
[2]; 63 g al/ha
  SETVI phytotoxicity rating (0-100): 30
[2]; 500 g al/ha
  SETVI phytotoxicity rating (0-100): 65
[3]; 63 g al/ha
  DIGSA phytotoxicity rating (0-100): 0
[3]; 500 g al/ha
  DIGSA phytotoxicity rating (0-100): 20
[4]; 63 g al/ha
  ECHCG phytotoxicity rating (0-100): 0
[4]; 500 g al/ha
  ECHCG phytotoxicity rating (0-100): 30
[5]; 63 g al/ha
  AMARE phytotoxicity rating (0-100): 90
[5]; 500 g al/ha
  AMARE phytotoxicity rating (0-100): 100
[6]; 63 g al/ha
  IPOHE phytotoxicity rating (0-100): 60
[6]; 500 g al/ha
  IPOHE phytotoxicity rating (0-100): 65
[7]; 63 g al/ha
  ABUTH phytotoxicity rating (0-100): 40
[7]; 500 g al/ha
  ABUTH phytotoxicity rating (0-100): 85
[8]; 63 g al/ha
  SORHA phytotoxicity rating (0-100): 0
[8]; 500 g al/ha
  SORHA phytotoxicity rating (0-100): 10
[9]; 63 g al/ha
  CHEAL phytotoxicity rating (0-100): 80
[9]; 500 g al/ha
  CHEAL phytotoxicity rating (0-100): 99
[10]; 63 g al/ha
  CASOB phytotoxicity rating (0-100): 0
[10]; 500 g al/ha
  CASOB phytotoxicity rating (0-100): 30
[11]; 125 g ai/ha
  crop damage rating CORN: 0
[11]; 500 g ai/ha
  crop damage rating CORN: 0
[12]; 125 g ai/ha
  crop damage rating RICE: 0
[12]; 500 g ai/ha
  crop damage rating RICE: 0
[13]; 63 g al/ha
  CORN crop damage rating (0-100): 15
[13]; 500 g al/ha
  CORN crop damage rating (0-100): 20
[14]; 63 g al/ha
  RICE crop damage rating (0-100): 0
[14]; 500 g al/ha
  RICE crop damage rating (0-100): 20
[15]; 63 g al/ha
  SOY crop damage rating (0-100): 50
[15]; 500 g al/ha
  SOY crop damage rating (0-100): 75
[16]; 125 g ai/ha
  crop damage rating SOY: 0
[16]; 500 g ai/ha
  crop damage rating SOY: 70
[17]; 125 g ai/ha
  phytotoxicity rating SETVI: 90
[17]; 500 g ai/ha
  phytotoxicity rating SETVI: 99
[18]; 125 g ai/ha
  phytotoxicity rating DIGSA: 0
[18]; 500 g ai/ha
  phytotoxicity rating DIGSA: 70
[19]; 125 g ai/ha
  phytotoxicity rating ECHCG: 0
[19]; 500 g ai/ha
  phytotoxicity rating ECHCG: 20
[20]; 125 g ai/ha
  phytotoxicity rating AMARE: 100
[20]; 500 g ai/ha
  phytotoxicity rating AMARE: 100
[21]; 125 g ai/ha
  phytotoxicity rating IPOHE: 10
[21]; 500 g ai/ha
  phytotoxicity rating IPOHE: 100
[22]; 125 g ai/ha
  phytotoxicity rating ABUTH: 0
[22]; 500 g ai/ha
  phytotoxicity rating ABUTH: 50
[23]; 125 g ai/ha
  phytotoxicity rating SORHA: 0
[23]; 500 g ai/ha
  phytotoxicity rating SORHA: 30
[24]; 125 g ai/ha
  phytotoxicity rating CHEAL: 60
[24]; 500 g ai/ha
  phytotoxicity rating CHEAL: 100
[25]; 125 g ai/ha
  phytotoxicity rating CASOB: 0
[25]; 500 g ai/ha
  phytotoxicity rating CASOB: 30
[26]; 125 g ai/ha
  phytotoxicity rating AMBEL: 0
[26]; 500 g ai/ha
  phytotoxicity rating AMBEL: 50
